From patent US9586942B2, “Aminotetraline and aminoindane derivatives, pharmaceutical compositions containing them, and their use in therapy” (AbbVie Deutschland GmbH & Co. KG, priority 2013, dated 2017)

What was measured:
[1] = Metabolic stability in human liver microsomes; assay type: in vitro ADME; settings: human liver microsomes 0.25 mg protein/ml, 0.5 μM test substance, NADPH, 37° C., pH 7.4; scaled microsomal clearance; examples marked * tested as fumarate salts
Experimental: Metabolic stability was determined as follows:
0.5 μM test substance was preincubated together with human liver microsomes (0.25 mg of microsomal protein/ml) in 0.05 M potassium phosphate buffer of pH 7.4 in microtiter plates at 37° C. for 5 min. The reaction was started by adding NADPH (1.0 mM). After 0, 5, 10, 15, 20 and 30 min the reaction was stopped and cooled with twice the amount of quench solution consisting of acetonitrile/methanol 1:1, and containing 0.2 μM carbutamide. The samples were frozen until analyzed. The remaining concentration of undegraded test substance was determined by LC MSMS. The half-life (T1/2) was determined from the gradient of the signal of test substance/unit time plot, allowing to calculate the half-life of the test substance, assuming first order kinetics, from the decrease in the concentration of the compound with time. The microsomal clearance (mClint) was calculated as follows: mClint=((ln(2)/t 1/2)/Microsomal Protein Concentration (mg/ml))*1000, leading to the unit of uLmin/mg. The scaled clearance (mClin_scaled) was calculated as mCLint_scaled=m CLint*(Microsomal Yield (mg/kg BW))/1000000*60, leading to the units L/hr/kg. The Microsomal Yield is defined by the specifics of the used microsomes. Calculations were modified from references: Di, The Society for Biomolecular Screening, 2003, 453-462; Obach, DMD, 1999 vol 27. N 11, 1350-1359.

human GlyT1c transporter = human GlyT1c transporter (Homo sapiens (Human), UniProt P48067); assay: Radioligand binding assay using recombinant CHO cell membranes expressing human GlyT1; settings: examples marked * tested as fumarate salts, read-out: radioligand binding Kiapp
human GlyT1c transporter, sequence (P48067 whole entry): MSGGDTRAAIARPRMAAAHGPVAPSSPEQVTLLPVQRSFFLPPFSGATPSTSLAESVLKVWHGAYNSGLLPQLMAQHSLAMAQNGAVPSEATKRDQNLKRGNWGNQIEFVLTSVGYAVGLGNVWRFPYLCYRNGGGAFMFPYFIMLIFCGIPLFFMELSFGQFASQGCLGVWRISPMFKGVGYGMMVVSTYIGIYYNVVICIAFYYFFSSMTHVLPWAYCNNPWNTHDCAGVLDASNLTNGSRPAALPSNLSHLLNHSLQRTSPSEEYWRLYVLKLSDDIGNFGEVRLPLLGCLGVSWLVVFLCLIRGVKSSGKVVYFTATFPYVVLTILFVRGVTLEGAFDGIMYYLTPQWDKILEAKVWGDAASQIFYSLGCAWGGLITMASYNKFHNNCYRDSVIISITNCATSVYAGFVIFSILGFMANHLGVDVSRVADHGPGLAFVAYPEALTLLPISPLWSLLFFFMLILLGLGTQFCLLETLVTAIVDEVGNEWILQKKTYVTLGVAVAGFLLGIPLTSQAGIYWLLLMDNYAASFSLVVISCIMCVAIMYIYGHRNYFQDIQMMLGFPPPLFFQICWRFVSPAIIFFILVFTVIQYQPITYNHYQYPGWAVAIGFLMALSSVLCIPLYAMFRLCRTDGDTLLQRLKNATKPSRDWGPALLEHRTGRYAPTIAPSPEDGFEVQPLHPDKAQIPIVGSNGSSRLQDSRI
Experimental: 2. Radioligand binding assays using recombinant CHO cell membranes expressing human GlyT1:
Radioligand binding to human GlyT1c transporter-expressing membranes was determined as described in Mezler et al., Molecular Pharmacology 74:1705-1715, 2008.

| Compound | human mCl [1] | Ki (human GlyT1c transporter) [nM] |
| --- | --- | --- |
| Cn1cnc(S(=O)(=O)NC2CN(c3ccc4c(c3)[C@@H](Cc3ccccc3)[C@@H](N3CCC3)CC4)C2)c1 [Example 1, N-(1-((7S,8R)-7-(azetidin-1-yl)-8-benzyl-5,6,7,8-tetrahydronaphthalen-2-yl)azetidin-3-yl)-1-methyl-1H-imidazole-4-sulfonamide] | ≦5 L/h/Kg | ≤ 10 |
| CS(=O)(=O)NC1CN(c2ccc3c(c2)[C@@H](Cc2ccccc2)[C@@H](N2CCC2)CC3)C1 [Example 3, N-(1-((7S,8R)-7-(azetidin-1-yl)-8-benzyl-5,6,7,8-tetrahydronaphthalen-2-yl)azetidin-3-yl)methanesulfonamide] | ≦5 L/h/Kg | ≤ 1000 |
| CCS(=O)(=O)NC1CN(c2ccc3c(c2)[C@@H](Cc2ccccc2)[C@@H](N2CCC2)CC3)C1 [Example 4, N-(1-((7S,8R)-7-(azetidin-1-yl)-8-benzyl-5,6,7,8-tetrahydronaphthalen-2-yl)azetidin-3-yl)ethanesulfonamide] | ≦5 L/h/Kg | ≤ 100 |
| CCCS(=O)(=O)NC1CN(c2ccc3c(c2)[C@@H](Cc2ccccc2)[C@@H](N2CCC2)CC3)C1 [Example 5, N-(1-((7S,8R)-7-(azetidin-1-yl)-8-benzyl-5,6,7,8-tetrahydronaphthalen-2-yl)azetidin-3-yl)propane-1-sulfonamide] | ≦5 L/h/Kg | ≤ 10 |
| O=S(=O)(NC1CN(c2ccc3c(c2)[C@@H](Cc2ccccc2)[C@@H](N2CCC2)CC3)C1)c1ccc2c(c1)OC(F)(F)O2 [Example 6, N-(1-((7S,8R)-7-(azetidin-1-yl)-8-benzyl-5,6,7,8-tetrahydronaphthalen-2-yl)azetidin-3-yl)-2,2-difluorobenzo[d][1,3]dioxole-5-sulfonamide] | ≦500 L/h/Kg | ≤ 10000 |
| Cn1cnc(S(=O)(=O)NC2(C)CN(c3ccc4c(c3)[C@@H](Cc3ccccc3)[C@@H](N3CCC3)CC4)C2)c1 [Example 7, N-(1-((7S,8R)-7-(azetidin-1-yl)-8-benzyl-5,6,7,8-tetrahydronaphthalen-2-yl)-3-methylazetidin-3-yl)-1-methyl-1H-imidazole-4-sulfonamide] | ≦5 L/h/Kg | ≤ 100 |
| CCS(=O)(=O)NC1(C)CN(c2ccc3c(c2)[C@@H](Cc2ccccc2)[C@@H](N2CCC2)CC3)C1 [Example 8, N-(1-((7S,8R)-7-(azetidin-1-yl)-8-benzyl-5,6,7,8-tetrahydronaphthalen-2-yl)-3-methylazetidin-3-yl)ethanesulfonamide] | ≦5 L/h/Kg | ≤ 10000 |

Continued, values first:

| human mCl [1] | Ki (human GlyT1c transporter) [nM] | Compound |
| --- | --- | --- |
| ≦5 L/h/Kg | ≤ 100 | Cn1cnc(S(=O)(=O)N[C@@H]2CCN(c3ccc4c(c3)[C@@H](Cc3ccccc3)[C@@H](N3CCC3)CC4)C2)c1 [Example 9, N-((R)-1-((7S,8R)-7-(azetidin-1-yl)-8-benzyl-5,6,7,8-tetrahydronaphthalen-2-yl)pyrrolidin-3-yl)-1-methyl-1H-imidazole-4-sulfonamide] |
| ≦5 L/h/Kg | ≤ 1000 | Cn1cnc(S(=O)(=O)N[C@H]2CCN(c3ccc4c(c3)[C@@H](Cc3ccccc3)[C@@H](N3CCC3)CC4)C2)c1 [Example 10, N-((S)-1-((7S,8R)-7-(azetidin-1-yl)-8-benzyl-5,6,7,8-tetrahydronaphthalen-2-yl)pyrrolidin-3-yl)-1-methyl-1H-imidazole-4-sulfonamide] |
| ≦5 L/h/Kg | ≤ 100 | Cn1cnc(S(=O)(=O)NC2CCN(c3ccc4c(c3)[C@@H](Cc3ccccc3)[C@@H](N3CCC3)CC4)CC2)c1 [Example 11, N-(1-((7S,8R)-7-(azetidin-1-yl)-8-benzyl-5,6,7,8-tetrahydronaphthalen-2-yl)piperidin-4-yl)-1-methyl-1H-imidazole-4-sulfonamide] |
| ≦5 L/h/Kg | ≤ 10 | Cn1cnc(S(=O)(=O)N[C@H]2C[C@H](c3ccc4c(c3)[C@@H](Cc3ccccc3)[C@@H](N3CCC3)CC4)C2)c1 [Example 12, N-((1R,3r)-3-((7S,8R)-7-(azetidin-1-yl)-8-benzyl-5,6,7,8-tetrahydronaphthalen-2-yl)cyclobutyl)-1-methyl-1H-imidazole-4-sulfonamide] |
| ≦5 L/h/Kg | ≤ 100 | Cn1cnc(S(=O)(=O)N[C@H]2C[C@@H](c3ccc4c(c3)[C@@H](Cc3ccccc3)[C@@H](N3CCC3)CC4)C2)c1 [Example 13, N-((1 S,3s)-3-((7S,8R)-7-(azetidin-1-yl)-8-benzyl-5,6,7,8-tetrahydronaphthalen-2-yl)cyclobutyl)-1-methyl-1H-imidazole-4-sulfonamide] |
| ≦5 L/h/Kg | ≤ 100 | CCCS(=O)(=O)N[C@H]1CCN(c2ccc3c(c2)[C@@H](Cc2ccccc2)[C@@H](N2CCC2)CC3)C1=O [Example 14, N-((S)-1-((7S,8R)-7-(azetidin-1-yl)-8-benzyl-5,6,7,8-tetrahydronaphthalen-2-yl)-2-oxopyrrolidin-3-yl)propane-1-sulfonamide] |
| ≦5 L/h/Kg | ≤ 100 | Cn1cnc(S(=O)(=O)NC2CN(c3ccc4c(c3)[C@@H](Cc3ccccc3)[C@@H](N3CC5CC5C3)CC4)C2)c1 (stereo partly drawn) [Example 15, N-(1-((7S,8R)-8-benzyl-7-(3-azabicyclo[3.1.0]hexan-3-yl)-5,6,7,8-tetrahydronaphthalen-2-yl)azetidin-3-yl)-1-methyl-1H-imidazole-4-sulfonamide] |
| ≦5 L/h/Kg | ≤ 10 | Cn1cc(S(=O)(=O)NC2CN(c3ccc4c(c3)[C@@H](Cc3ccccc3)[C@@H](N3CC5CC5C3)CC4)C2)nn1 (stereo partly drawn) [Example 16, N-(1-((7S,8R)-8-benzyl-7-(3-azabicyclo[3.1.0]hexan-3-yl)-5,6,7,8-tetrahydronaphthalen-2-yl)azetidin-3-yl)-1-methyl-1H-1,2,3-triazole-4-sulfonamide] |
| ≦5 L/h/Kg | ≤ 10 | CCCS(=O)(=O)NC1CN(c2ccc3c(c2)[C@@H](Cc2ccccc2)[C@@H](N2CC4CC4C2)CC3)C1 (stereo partly drawn) [Example 17, N-(1-((7S,8R)-8-benzyl-7-(3-azabicyclo[3.1.0]hexan-3-yl)-5,6,7,8-tetrahydronaphthalen-2-yl)azetidin-3-yl)propane-1-sulfonamide] |
